Laboratory results: patent US6162463A (priority 1998, dated 2000)
Where a name gives a salt, the structure may show the parent alone.

Tests used:
[1] = oral, 120 mg diltiazem hydrochloride, after administration; FIG. 6
Method: (§1) An interval of approximately 5-7 days elapsed between the administration of each agent tested in this example.
(§2) (TM) containing EDTA (ethylenediamine tetraacetic acid) as an anticoagulant just before administration of the test agent; this sample represented the zero time sample. The blood sample was centrifuged for 15 minutes under conditions known to those skilled in the art. The plasma portion of each sample was harvested, frozen and stored at minus 70 degrees Celsius until analysis. At timed intervals after administration, additional blood samples were withdrawn and similarly treated.

clinical = settings: po, 120 mg
Method: as §1, §2

[2] = cited from earlier work
angina pectoris = settings: cited from earlier work

Row | time by which most of the quick release preparation is gone (plasma) [1] | Tmax (clinical; human, plasma) | Tmax (clinical; in vivo) | SMILES | decrease in bioavailability by first-pass metabolism (loss) ([2]; oral) | plasma half-life ([2]; references 17, 19) | incidence of side effects compared with other calcium channel blockers (angina pectoris; human, in vivo) | safety and efficacy in stable and unstable angina pectoris (angina pectoris; reference 1)
1 | 5 to 6 h | 1 to 2 h | 1 to 2 h | COc1ccc([C@@H]2Sc3ccccc3N(CCN(C)C)C(=O)[C@@H]2OC(C)=O)cc1 [diltiazem hydrochloride] | – | – | – | –
2 | – | – | – | COc1ccc([C@@H]2Sc3ccccc3N(CCN(C)C)C(=O)[C@@H]2OC(C)=O)cc1 [diltiazem] | ≤ 60% | 2 to 6 h | lower incidence of side effects | safe and effective treatment for both stable and unstable angina pectoris
